Data on nine compounds can be found in patent publication US20220041647A1, “ESTRA-1,3,5(10)-TRIENE COMPOUNDS CONDENSED IN POSITION 16(17) WITH A PYRAZOLE RING AS INHIBITORS OF 17-HSD1” (FORENDO PHARMA LTD, priority 2018, published 2022).

Holding throughout (assay type): biochemical
In experiment [1] the target is T1, recombinant human 17β-HSD2 (Homo sapiens, UniProt P37059).
T1 construct: made in house; host or cells: Sd9 (Sf9) insect cells, baculovirus (Bac to Bac Expression System)
T1 sequence (P37059 1-387): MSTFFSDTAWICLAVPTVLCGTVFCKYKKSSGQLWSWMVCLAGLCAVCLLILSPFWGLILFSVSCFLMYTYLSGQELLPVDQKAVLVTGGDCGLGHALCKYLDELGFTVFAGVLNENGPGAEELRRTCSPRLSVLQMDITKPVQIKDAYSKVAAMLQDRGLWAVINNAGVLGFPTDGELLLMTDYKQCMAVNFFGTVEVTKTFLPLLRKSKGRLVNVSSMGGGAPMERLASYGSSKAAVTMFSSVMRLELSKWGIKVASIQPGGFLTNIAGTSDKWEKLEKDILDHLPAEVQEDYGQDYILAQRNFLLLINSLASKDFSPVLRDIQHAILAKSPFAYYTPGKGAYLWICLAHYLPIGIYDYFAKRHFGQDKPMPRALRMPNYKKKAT
Description: Inhibition of recombinant human 17β-HSD2 (estradiol to estrone conversion, HPLC/radioactivity). To be noted: compound 1 μM; 50 nM estradiol, 1 mM NADH, 30 min RT. As for the experimental part: 17β-HSD2 production and isolation: Similarly to 173-HSD1 the Recombinant baculovirus was generated by the “Bac to Bac Expression System” (Invitrogen). Recombinant bacmid was transfected to Sd9 insect cells using “Cellfectin Reagent” (Invitrogen). 60 h later cells were harvested and supernatant were fractionated by the following protocol: • cells were dissolved into 40 ml of A-buffer (40 mM TRIS, pH8.0, 20% glycerol, 20 μM NAD, 0.4 mM PMSF, 150 mM NaCl, 0.5% dodecyl-β-maltoside+protease inhibitor cocktail) • cells were sonicated • lysate was incubated on ice for 15 min • lysate was centrifuged 5000 rpm 15 min, +4° C. • centrifugation of the supernatant 180 000 g 30 min, +4° C. • pellet was dissolved into 8 ml of A-buffer • not resuspended material was removed by centrifugation 5000 rpm 15 min, +4° C. • the clear supernatant was divided into 100 μl aliquots and were stored frozen until determination of enzymatic activity.
The amount of 173-HSD2 was analysed by immunoblotting and total protein concentration of each extract batch was determined.
Assay—Inhibition of recombinant human 17β-HSD2: Recombinant protein (4 μg/ml) was incubated in 20 mM KH2PO4 pH 8.5 with 50 nM estradiol (including 800 000 cpm/ml of ^3H-estradiol) and 1 mM NADH for 30 min at RT, in the presence of the potential inhibitor at concentrations 1 μM or 0.1 μM. Inhibitor stock solutions were prepared in DMSO. Final concentration of DMSO was adjusted to 1% in all samples. The enzyme reaction was stopped by addition of 10% trichloroacetic acid (final concentration). Samples were centrifuged in a microtiter plate at 4000 rpm for 10 min. Supernatants were applied to reverse phase HPLC on a Waters Symmetry C18 column, equipped with a Waters Sentry Guard column. Isocratic HPLC runs were performed at RT at a flow rate of1 ml/min in acetonitrile:water 48:52 as running solvent. Radioactivity was monitored in the eluate by a Scintillation Analyzer. Total radioactivity for estrone and estradiol were determined in each sample and percent conversion of estradiol to estrone was calculated according to the following formula:
% conversion=100×{(cpm estrone in sample with inhibitor)/[(cpm estradiol in sample with inhibitor)+(cpm estrone in sample with inhibitor)]}/{[(cpm estrone in sample without inhibitor)/[(cpm estradiol in sample without inhibitor)+(cpm estrone in sample without inhibitor)]}.
(§1) Percent inhibition was calculated followingly: % inhibition=100−% conversion.

In experiment [2] the target is T2, recombinant human 17β-HSD1 (Homo sapiens, UniProt P14061).
T2 construct: made in house; host or cells: Sd9 (Sf9) insect cells, baculovirus (Bac to Bac Expression System)
T2 sequence (P14061 1-328): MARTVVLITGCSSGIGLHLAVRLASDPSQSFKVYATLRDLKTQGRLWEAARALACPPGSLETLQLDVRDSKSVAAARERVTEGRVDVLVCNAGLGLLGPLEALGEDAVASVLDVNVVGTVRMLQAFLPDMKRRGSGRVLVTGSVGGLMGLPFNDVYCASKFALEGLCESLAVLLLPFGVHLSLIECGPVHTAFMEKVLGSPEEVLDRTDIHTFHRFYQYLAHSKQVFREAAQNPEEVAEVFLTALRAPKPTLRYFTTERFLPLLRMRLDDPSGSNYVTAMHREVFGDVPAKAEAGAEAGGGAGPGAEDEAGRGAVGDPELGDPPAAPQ
Nature of the experiment: Inhibition of recombinant human 17β-HSD1 (estrone to estradiol conversion, HPLC/radioactivity). The conditions noted are these: compound 100 nM; 30 nM estrone, 1 mM NADPH, 30 min RT. As for the experimental part:
17β-HSD1 production and isolation: Recombinant baculovirus was generated by the “Bac to Bac Expression System” (Invitrogen). Recombinant bacmid was transfected to Sd9 insect cells using “Cellfectin Reagent” (Invitrogen). 60 h later cells were harvested; the microsomal fraction was isolated as described by Puranen, T. J., Poutanen, M. H., Peltoketo, H. E., Vihko, P. T. and Vihko, R. K. (1994) Site-directed mutagenesis of the putative active site of human 17 β-hydroxysteroid dehydrogenase type 1. Biochem. J. 304: 289-293. Aliquots were stored frozen until determination of enzymatic activity.
Assay—Inhibition of recombinant human 17β-HSD1: Recombinant protein (1 μg/ml) was incubated in 20 mM KH2PO4 pH 7.4 with 30 nM estrone (including 800 000 cpm/ml of ^3H-estrone) and 1 mM NADPH for 30 min at RT, in the presence of the potential inhibitor at concentrations 1 μM or 0.1 μM. Inhibitor stock solutions were prepared in DMSO. Final concentration of DMSO was adjusted to 1% in all samples. The enzyme reaction was stopped by addition of 10% trichloroacetic acid (final concentration). Samples were centrifuged in a microtiter plate at 4000 rpm for 10 min. Supernatants were applied to reverse phase HPLC on a Waters Symmetry C18 column, equipped with a Waters Sentry Guard column. Isocratic HPLC runs were performed at RT at a flow rate of 1 ml/min in acetonitrile:water 48:52 as running solvent. Radioactivity was monitored in the eluate by a Scintillation Analyzer. Total radioactivity for estrone and estradiol were determined in each sample and percent conversion of estrone to estradiol was calculated according to the following formula:
% conversion=100×{(cpm estradiol in sample with inhibitor)/[(cpm estrone in sample with inhibitor)+(cpm estradiol in sample with inhibitor)]}/{[(cpm estradiol in sample without inhibitor)/[(cpm estrone in sample without inhibitor)+(cpm estradiol in sample without inhibitor)]}.
as §1

Experiment [3] deals with HSD1 enzyme that is expressed in rabbit placenta tissue. Description: Inhibition of E1 to E2 conversion in rabbit placenta tissue homogenate. To be noted: compound 100 nM, 30 nM estrone, 1 mM β-NADPH, 30 min. The procedure:
The assay is based on an enzymatic reaction where HSD1 enzyme that is expressed in rabbit placenta tissue converts its natural substance estrone (E1) to estradiol (E2) in the presence of a co-factor β-NADPH.
Homogenization of rabbit placenta tissue: Weight a piece of the frozen tissue into a Precellys ck28 bead tube. Add buffer solution (20 mM KH2PO4 with 1 mM EDTA, pH 7.4) in 1:2 ratio (e.g. 300 mg of tissue:600 μl reaction buffer solution). Insert the bead tubes to homogenizer and homogenize 2×30 s. 6000 rpm.
Centrifugated 5 min., 2600 rpm at +4° C. and collect supernatant. Aliquots of homogenate are stored in −80° C.
Assay—Inhibition of E1 to E2 conversion in rabbit placenta tissue: The reaction takes place in a buffer solution (20 mM KH2PO4 with 1 mM EDTA, pH 7,4), including appropriate amount of rabbit placenta homogenate, co-factor (1 mM β-NADPH), Substrate (30 nM estrone), labelled substrate as tracer (5 nM [^3H]-estrone), and the potential inhibitor at concentrations 1 μM or 0.1 μM. Inhibitor stock solutions were prepared in DMSO. Final concentration of DMSO was adjusted to 1% in all samples. During a 30-minute incubation part of the estrone is converted to estradiol. The reaction is stopped by lowering the pH to 1 with 10% trichloro acetic acid (TCA). The substrate and conversion products are analyzed by HPLC and a Scintillation counter analyzer. Total radioactivity for estrone and estradiol were determined in each sample and percent conversion of estrone to estradiol was calculated according to the following formula:
% conversion=100×{(cpm estradiol in sample with inhibitor)/[(cpm estrone in sample with inhibitor)+(cpm estradiol in sample with inhibitor)]}/{(cpm estradiol in sample without inhibitor)/[(cpm estrone in sample without inhibitor)+(cpm estradiol in sample without inhibitor)]}.
as §1

The term inhibition denotes the change of the read-out against control, counted positive when it falls. As to `Cc1ccc(NC(=O)CC[C@@H]2c3c[nH]nc3[C@@]3(C)CCC4c5ccc(F)cc5CCC4C23)nn1` (stereo partly drawn) [Compound 111, 3-((8aS,12S)-4-fluoro-8a-methyl-1,2,6b,7,8,8a,10,12,12a,12b-decahydronaphtho[2′,1′:4,5]indeno[1,2-c]pyrazol-12-yl)-N-(6-methylpyridazin-3-yl)propanamide], the inhibition at 1 µM in experiment [1] is 1%. Further, the inhibition at 0.1 µM in experiment [2] came to 48%. Further, the “Rabbit placenta inhibition % @100 nM” value in experiment [3] was determined as 55%.
For `C[C@]12CCC3c4ccc(F)cc4CCC3C1[C@H](CCC(=O)Nc1cccnn1)c1c[nH]nc12` (stereo partly drawn) [Compound 114, 3-((8aS,12S)-4-fluoro-8a-methyl-1,2,6b,7,8,8a,10,12,12a,12b-decahydronaphtho[2′,1′:4,5]indeno[1,2-c]pyrazol-12-yl)-N-(pyridazin-3-yl)propanamide] the same measures were -1%, 53% and 43%.
For `C[C@]12CCC3c4ccc(F)cc4CCC3C1[C@H](CCC(=O)Nc1cnccn1)c1c[nH]nc12` (stereo partly drawn) [Compound 120, 3-((8aS,12S)-4-fluoro-8a-methyl-1,2,6b,7,8,8a,10,12,12a,12b-decahydronaphtho[2′,1′:4,5]indeno[1,2-c]pyrazol-12-yl)-N-(pyrazin-2-yl)propanamide] the same measures were 4%, 67% and 34%.
Consider `C[C@]12CCC3c4ccc(Cl)cc4CCC3C1[C@H](CCC(=O)Nc1cc(F)ccn1)c1c[nH]nc12` (stereo partly drawn) [Compound 129, 3-((8aS,12S)-4-chloro-8a-methyl-1,2,6b,7,8,8a,10,12,12a,12b-decahydronaphtho[2′1′:4,5]indeno[1,2-c]pyrazol-12-yl)-N-(4-fluoropyridin-2-yl)propanamide], for which the inhibition at 1 µM in experiment [1] is 8%. For the same compound, the inhibition at 0.1 µM in experiment [2] was 84%. Further, the “Rabbit placenta inhibition % @100 nM” value in experiment [3] is 28%.
For `C[C@]12CCC3c4ccc(Cl)cc4CCC3C1[C@H](CCC(=O)Nc1cccc(F)n1)c1c[nH]nc12` (stereo partly drawn) [Compound 135, 3-((8aS,12S)-4-chloro-8a-methyl-1,2,6b,7,8,8a,10,12,12a,12b-decahydronaphtho[2,1′:4,5]indeno[1,2-c]pyrazol-12-yl)-N-(6-fluoropyridin-2-yl)propanamide] the same measures were 2%, 86% and 31%.
The like results for `C[C@]12CCC3c4ccccc4CCC3C1[C@H](CCC(=O)NC1CCOCC1)c1c[nH]nc12` (stereo partly drawn) [Compound 153, 3-((8aS,12S)-8a-methyl-1,2,6b,7,8,8a,10,12,12a,12b-decahydronaphtho[2′,1′:4,5]indeno[1,2-c]pyrazol-12-yl)-N-(tetrahydro-2H-pyran-4-yl)propanamide] were, in that order, 4%, 85% and 10%.
On to `CN(CC1CC1)C(=O)CC[C@@H]1c2c[nH]nc2[C@@]2(C)CCC3c4ccccc4CCC3C12` (stereo partly drawn) [Compound 174, N-(cyclopropylmethyl)-N-methyl-3-((8aS,12S)-8a-methyl-1,2,6b,7,8,8a,10,12,12a,12b-decahydronaphtho[2′,1′:4,5]indeno[1,2-c]pyrazol-12-yl)propanamide], for which the inhibition at 1 µM in experiment [1] stood at 10%. In addition, the inhibition at 0.1 µM in experiment [2] worked out at 88%. Further, the “Rabbit placenta inhibition % @100 nM” value in experiment [3] is 14%.
The like results for `C[C@]12CCC3c4ccccc4CCC3C1[C@H](CCC(=O)N1CCC3(CCOCC3)C1)c1c[nH]nc12` (stereo partly drawn) [Compound 177, 3-((8aS,12S)-8a-methyl-1,2,6b,7,8,8a,10,12,12a,12b-decahydronaphtho[2′,1′:4,5]indeno[1,2-c]pyrazol-12-yl)-1-(8-oxa-2-azaspiro[4.5]decan-2-yl)propan-1-one] were, in that order, 4%, 89% and 16%.
For `C[C@]12CCC3c4ccccc4CCC3C1[C@H](CCC(=O)N1Cc3ccccc3C1)c1c[nH]nc12` (stereo partly drawn) [Compound 180, 1-(isoindolin-2-yl)-3-((8aS,12S)-8a-methyl-1,2,6b,7,8,8a,10,12,12a,12b-decahydronaphtho[2′,1′:4,5]indeno[1,2-c]pyrazol-12-yl)propan-1-one] the same measures were 12%, 92% and 14%.
